Assay results published in ChEMBL document CHEMBL5325413, “Optimization of BAX trigger site activator BTSA1 with improved antitumor potency and in vitro ADMET properties” (Eur J Med Chem, 2023).
Active and inactive are the calls of the source. No cut-off for these calls is given here.

Columns and labels:
THP-1 = assay: Antiproliferative activity against human THP-1 cells expressing BAX assessed as cell growth inhibition incubated for 72 hrs by trypan blue cell counting analysis; type: functional
A549 [1] = assay: Induction of apoptosis in human A549 cells assessed as dead cells at 10 uM incubated for 48 hrs by Annexin V-FITC/PI staining based flow cytometry analysis (reference value: 0.535%); type: functional
A549 [2] = assay: Induction of apoptosis in human A549 cells assessed as total apoptotic cells at 10 uM incubated for 48 hrs by Annexin V-FITC/PI staining based flow cytometry analysis (reference value: 2.86%); type: functional
[3] = mouse, microsomes, 1 h, 100 µM
A549 [4] = assay: Induction of apoptosis in human A549 cells assessed as increase in cleaved PARP level incubated for 48 hrs by Western blot analysis; type: functional, cell-based; conditions: dose 5-40 µM
A549 [5] = assay: Induction of cell cycle arrest in human A549 cells assessed as accumulation of cells at S phase at 5 uM incubated for 48 hrs by RNase/PI staining based flow cytometry analysis (reference value: 26.01%); type: functional
A549 [6] = assay: Induction of apoptosis in human A549 cells assessed as dead cells at 10 uM incubated for 48 hrs by Annexin V-FITC/PI staining based flow cytometry analysis (reference value: 0.739%); type: functional
A549 [7] = assay: Induction of apoptosis in human A549 cells assessed as upregulation of BAX translocation at 20 uM incubated for 24 hrs by Western blot analysis; type: functional, cell-based
A549 [8] = assay: Induction of apoptosis in human A549 cells assessed as live cells at 10 uM incubated for 48 hrs by Annexin V-FITC/PI staining based flow cytometry analysis (reference value: 96.4%); type: functional
[9] = Drug recovery in mouse liver microsomes at 100 uM incubated for 60 mins in absence of NADPH by LC-MS/MS analysis; type: ADME, Microsome; conditions: read-out: Drug recovery
[10] = Stability in rat plasma assessed as compound remaining measured immediately; type: ADME, cell-free; conditions: read-out: Stability
A549 [11] = assay: Induction of apoptosis in human A549 cells assessed as dead cells at 5 uM incubated for 48 hrs by Annexin V-FITC/PI staining based flow cytometry analysis (reference value: 0.535%); type: functional
[12] = Stability in rat plasma assessed as compound remaining measured after 60 mins; type: ADME, cell-free; conditions: read-out: Stability
A549 [13] = assay: Induction of cell cycle arrest in human A549 cells assessed as accumulation of cells at G0/G1 phase at 2.5 uM incubated for 48 hrs by RNase/PI staining based flow cytometry analysis (reference value: 54.82%); type: functional
HCT-116 = assay: Antiproliferative activity against human HCT-116 cells assessed as cell growth inhibition incubated for 72 hrs by MTT assay; type: functional
A549 [14] = assay: Induction of apoptosis in human A549 cells assessed as live cells at 10 uM incubated for 48 hrs by Annexin V-FITC/PI staining based flow cytometry analysis (reference value: 95.9 %); type: functional
Cytochrome P450 3A4 = Cytochrome P450 3A4 (Homo sapiens, UniProt P08684); assay: Inhibition of CYP3A4 in human liver microsomes using midazolam as substrate prewarmed for 10 mins followed by NADPH addition and measured after 10 mins by LC-MS/MS analysis
Chain of Cytochrome P450 3A4 (P08684 whole entry): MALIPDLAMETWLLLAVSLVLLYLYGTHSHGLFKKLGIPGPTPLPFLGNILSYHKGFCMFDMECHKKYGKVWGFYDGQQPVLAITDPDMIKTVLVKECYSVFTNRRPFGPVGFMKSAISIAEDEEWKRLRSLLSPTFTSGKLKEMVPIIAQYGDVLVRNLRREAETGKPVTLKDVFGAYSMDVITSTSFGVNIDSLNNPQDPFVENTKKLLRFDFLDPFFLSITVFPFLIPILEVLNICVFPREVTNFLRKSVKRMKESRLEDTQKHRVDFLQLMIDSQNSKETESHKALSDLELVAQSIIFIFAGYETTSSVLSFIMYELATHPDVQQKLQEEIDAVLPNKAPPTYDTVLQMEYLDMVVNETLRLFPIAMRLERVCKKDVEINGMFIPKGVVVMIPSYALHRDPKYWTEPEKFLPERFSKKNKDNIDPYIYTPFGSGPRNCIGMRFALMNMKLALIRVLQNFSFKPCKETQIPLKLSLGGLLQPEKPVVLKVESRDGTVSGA

[15] = Stability in rat plasma assessed as half life; type: ADME, cell-free
[16] = molecular target: Apoptosis regulator BAX (Homo sapiens) (UniProt Q07812); assay: Activation of BAX in human A549 cells assessed as protein translocation by measuring increase in BAX protein level in mitochondrial fraction incubated for 24 hrs by Western blot analysis; type: mitochondria; conditions: filed as activator, dose 5-40 µM
Chain of Apoptosis regulator BAX (Homo sapiens) (Q07812 whole entry): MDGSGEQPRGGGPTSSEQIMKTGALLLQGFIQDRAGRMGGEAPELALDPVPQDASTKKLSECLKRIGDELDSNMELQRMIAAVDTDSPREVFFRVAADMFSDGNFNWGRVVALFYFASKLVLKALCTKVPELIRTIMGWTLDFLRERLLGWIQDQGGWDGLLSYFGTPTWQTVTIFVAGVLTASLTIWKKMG

A549 [17] = assay: Antiproliferative activity against human A549 cells assessed as cell growth inhibition incubated for 72 hrs by MTT assay; type: functional
PC-3 = assay: Antiproliferative activity against human PC-3 cells assessed as cell growth inhibition incubated for 72 hrs by MTT assay; type: functional
A549 [18] = assay: Induction of cell cycle arrest in human A549 cells assessed as accumulation of cells at G2/M phase at 5 uM incubated for 48 hrs by RNase/PI staining based flow cytometry analysis (reference value: 18.97%); type: functional
MDA-MB-231 = assay: Antiproliferative activity against human MDA-MB-231 cells expressing BAX assessed as cell growth inhibition incubated for 72 hrs by MTT assay; type: functional
[19] = Stability in rat plasma assessed as compound remaining measured after 10 mins; type: ADME, cell-free; conditions: read-out: Stability
[20] = molecular target: Apoptosis regulator BAX (Homo sapiens) (UniProt Q07812); assay: Activation of BAX in human A549 cells at 20 uM incubated for 24 hrs by NP-40 based immunoprecipitation analysis; type: cell-based; conditions: filed as activator
A549 [21] = assay: Induction of apoptosis in human A549 cells assessed as formation of apoptotic bodies at 2.5 to 10 uM incubated for 48 hrs by Hoechst 33342 staining based fluorescence microscopic analysis; type: functional, cell-based; conditions: dose 2.5-10 µM
A549 [22] = assay: Induction of cell cycle arrest in human A549 cells assessed as accumulation of cells at G0/G1 phase at 5 uM incubated for 48 hrs by RNase/PI staining based flow cytometry analysis (reference value: 54.82%); type: functional
A549 [23] = assay: Induction of apoptosis in human A549 cells assessed as early apoptotic cells at 10 uM incubated for 48 hrs by Annexin V-FITC/PI staining based flow cytometry analysis (reference value: 0.708%); type: functional
A549 [24] = assay: Induction of apoptosis in human A549 cells assessed as late apoptotic cells at 10 uM incubated for 48 hrs by Annexin V-FITC/PI staining based flow cytometry analysis (reference value: 2.15%); type: functional
[25] = mouse, 1 h, 100 µM
A549 [26] = assay: Induction of apoptosis in human A549 cells assessed as early apoptotic cells at 10 uM incubated for 48 hrs by Annexin V-FITC/PI staining based flow cytometry analysis (reference value: 1.09 %); type: functional

CN(C)C1CCN(C(=O)c2ccc(N3N=C(c4ccccc4)/C(=N/Nc4ccccc4)C3=O)cc2)CC1 showed a GI50 (THP-1) of 2180 nM, an Activity (A549 [1]) of 0.583% and an Activity (A549 [2]) of 93.7%. For the same compound, the CLint [3] was < 9.6 µL/min/mg, the Activity (A549 [4]) was “Dose-Dependent Effect” and the Activity (A549 [5]) was 27.84%. For the same compound, the Activity (A549 [6]) was 0.535%, the Activity (A549 [7]) was “Active” and the Activity (A549 [8]) was 95.9%. The remaining at 1 h, 100 µM [9] was 96%, the remaining at 0 min [10] was 100% and the Activity (A549 [11]) was 0.284%. For the same compound, the remaining at 1 h [12] was 94.8%, the Activity (A549 [13]) was 58.46% and the GI50 (HCT-116) was 3310 nM. For the same compound, the Activity (A549 [14]) was 26.1%, the IC50 (Cytochrome P450 3A4) was > 50000 nM and the half-life [15] was > 4.82 h. The Activity [16] was “Dose-Dependent Effect”, the GI50 (A549 [17]) was 2150 nM and the GI50 (PC-3) was 2500 nM. It also gave an Activity (A549 [18]) of 8.3%, a GI50 (MDA-MB-231) of 3980 nM and a remaining at 10 min [19] of 99.4%. The Activity [20] was “Active”, the Activity (A549 [21]) was “Active” and the Activity (A549 [22]) was 63.73%. For the same compound, the Activity (A549 [23]) was 71.2%, the Activity (A549 [24]) was 22.5% and the CLH [25] was < 2.28 mL/h/kg. For the same compound, the Activity (A549 [26]) was 55%.
